Experimental data reported in patent US20260285853A1, “COMPOUNDS AND METHODS FOR MODULATING SPLICING” (REMIX THERAPEUTICS INC., priority 2023, published 2026).

How the values were obtained:
Assay type in all cases: cell-based
HTT mRNA [1] = assay: Splicing RT-qPCR assay (THP), Table 2A; settings: Table 2A (THP); for AC50: AJ mRNA increase, read-out: HTT AJ (increase in alternative junction mRNA, AC50); for IC50: CJ mRNA decrease, read-out: HTT CJ (decrease in canonical junction mRNA, IC50)
MYB mRNA [2] = assay: Splicing RT-qPCR assay (THP), Table 2A; settings: Table 2A (THP); for AC50: AJ mRNA increase, read-out: MYB AJ (increase in alternative junction mRNA, AC50); for IC50: CJ mRNA decrease, read-out: MYB CJ (decrease in canonical junction mRNA, IC50)
HTT mRNA [3] = assay: Gene panel canonical junction qPCR assay, decrease in CJ mRNA, Table 3; settings: decrease in canonical junction (CJ) mRNA, gene panel qPCR, Table 3
In short: (§1)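 A673 (DMEM, 10% FBS, 15,000 cells/well) or K562 (IMDM, 10% FBS) cells treated 24 h at 37 °C with 11-point 3-fold dilutions, top 10 uM, DMSO ≤0.25%. Canonical exon-exon junction mRNA measured by RT-qPCR, normalized to GAPDH, GUSB or PPIA and DMSO (ΔΔCt); IC50 from 4-parameter logistic fit.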

MYB mRNA [4] = assay: as above; settings: decrease in canonical junction (CJ) mRNA, gene panel qPCR, Table 3
In short: as §1

[5] = system: SH-SY5Y (human neuroblastoma) cells; assay: Cell viability, Cell Titer Glo 2.0 assay; settings: read-out: Viability SHSY5Y.3 GI50
In short: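 Toxicity screen in SH-SY5Y cells. Compounds were serially diluted in DMSO and then in medium, giving 0.1% DMSO final. Viability was read with CellTiter-Glo 2.0 after 72 h at 37 °C, 5% CO2, against medium-only blank wells.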

Compound `Cc1cc2cc(NC(=O)c3ccc(N4CCC(NC5CC5)CC4)c4cn(C)nc34)oc2c(C)n1` [Compound 451, 4-(4-(cyclopropylamino)piperidin-1-yl)-N-(5,7-dimethyl-furo-[2,3-c]pyridin-2-yl)-2-methyl-2H-indazole-7-carboxamide 2,2,2-trifluoroacetate] has an AC50 (HTT mRNA [1]) of over 10 µM, an IC50 (HTT mRNA [1]) of over 10 µM and an AC50 (MYB mRNA [2]) of 1 to 10 µM. The IC50 (MYB mRNA [2]) was 1 to 10 µM, the IC50 (HTT mRNA [3]) was over 10 µM and the IC50 (MYB mRNA [4]) was 1 to 10 µM. For the same compound, the GI50 [5] was 0.1 to 1 µM.

`CCNC1CCN(c2ccc(C(=O)Nc3cn4cc(C)nc(C)c4c3OC)c3nn(C)cc23)CC1` [Compound 452, 4-(4-(ethylamino)-piperidin-1-yl)-N-(8-methoxy-1,3-dimethyl-pyrrolo[1,2-a]pyrazin-7-yl)-2-methyl-2H-indazole-7-carboxamide 2,2,2-trifluoroacetate] was tested, and the AC50 (HTT mRNA [1]) was over 10 µM, the IC50 (HTT mRNA [1]) was over 10 µM and the AC50 (MYB mRNA [2]) was over 10 µM. The IC50 (MYB mRNA [2]) was over 10 µM, the IC50 (HTT mRNA [3]) was over 10 µM and the IC50 (MYB mRNA [4]) was over 10 µM. The GI50 [5] was 1 to 10 µM.

Work on `Cc1cn2cc(NC(=O)c3c(F)cc(N4CCC(NC5CC5)CC4)c4cn(C)nc34)c(F)c2c(C)n1` [Compound 453, 4-[4-(cyclopropylamino)-1-piperidyl]-6-fluoro-N-(8-fluoro-1,3-dimethyl-pyrrolo[1,2-a]pyrazin-7-yl)-2-methyl-indazole-7-carboxamide] yielded an AC50 (HTT mRNA [1]) of over 10 µM, an IC50 (HTT mRNA [1]) of over 10 µM and an AC50 (MYB mRNA [2]) of under 0.1 µM. The IC50 (MYB mRNA [2]) was 0.1 to 1 µM, the IC50 (HTT mRNA [3]) was over 10 µM and the IC50 (MYB mRNA [4]) was 0.1 to 1 µM. For the same compound, the GI50 [5] was 1 to 10 µM.

`COc1cc2nn(C)cc2cc1NC(=O)c1c(F)cc(NCC2CCNCC2)c2cn(C)nc12` [Compound 454, 6-fluoro-N-(6-methoxy-2-methyl-indazol-5-yl)-2-methyl-4-(4-piperidylmethylamino)indazole-7-carboxamide] gave an AC50 (HTT mRNA [1]) of over 10 µM, an IC50 (HTT mRNA [1]) of over 10 µM and an AC50 (MYB mRNA [2]) of 1 to 10 µM. For the same compound, the IC50 (MYB mRNA [2]) was over 10 µM, the IC50 (HTT mRNA [3]) was over 10 µM and the IC50 (MYB mRNA [4]) was over 10 µM. The GI50 [5] was over 10 µM.

Work on `COc1cc2nn(C)cc2cc1NC(=O)c1c(F)cc(N2CC3(CNC3)C2)c2cn(C)nc12` [Compound 455, 4-(2,6-diazaspiro[3.3]-heptan-2-yl)-6-fluoro-N-(6-methoxy-2-methyl-indazol-5-yl)-2-methyl-indazole-7-carboxamide] yielded an AC50 (HTT mRNA [1]) of over 10 µM, an IC50 (HTT mRNA [1]) of over 10 µM and an AC50 (MYB mRNA [2]) of 1 to 10 µM. The IC50 (MYB mRNA [2]) was 1 to 10 µM, the IC50 (HTT mRNA [3]) was over 10 µM and the IC50 (MYB mRNA [4]) was 1 to 10 µM. It also gave a GI50 [5] of over 10 µM.

For `Cc1cc2cc(NC(=O)c3c(F)cc(N4CCC(NC5CC5)CC4)c4cn(C)nc34)oc2c(C)n1` [Compound 456, 4-[4-(cyclopropylamino)-1-piperidyl]-N-(5,7-dimethylfuro-[2,3-c]pyridin-2-yl)-6-fluoro-2-methyl-indazole-7-carboxamide], the AC50 (HTT mRNA [1]) was over 10 µM, the IC50 (HTT mRNA [1]) was over 10 µM and the AC50 (MYB mRNA [2]) was under 0.1 µM. The IC50 (MYB mRNA [2]) was 0.1 to 1 µM, the IC50 (HTT mRNA [3]) was over 10 µM and the IC50 (MYB mRNA [4]) was 0.1 to 1 µM. It also gave a GI50 [5] of 1 to 10 µM.

Work on `COc1c(NC(=O)c2ccc(N3CCC(NC4CC4)CC3)c3cn(C)nc23)cn2cc(C)nc(C)c12` [Compound 457, 4-[4-(cyclopropylamino)-1-piperidyl]-N-(8-methoxy-1,3-dimethyl-pyrrolo[1,2-a]pyrazin-7-yl)-2-methyl-indazole-7-carboxamide] yielded an AC50 (HTT mRNA [1]) of 1 to 10 µM, an IC50 (HTT mRNA [1]) of 1 to 10 µM and an AC50 (MYB mRNA [2]) of 1 to 10 µM. The IC50 (MYB mRNA [2]) was 1 to 10 µM, the IC50 (HTT mRNA [3]) was 1 to 10 µM and the IC50 (MYB mRNA [4]) was 1 to 10 µM. For the same compound, the GI50 [5] was 1 to 10 µM.

`C=CCNC1CCN(c2ccc(C(=O)Nc3cn4cc(C)nc(C)c4c3OC)c3nn(C)cc23)CC1` [Compound 458, 4-[4-(allylamino)-1-piperidyl]-N-(8-methoxy-1,3-dimethyl-pyrrolo[1,2-a]pyrazin-7-yl)-2-methyl-indazole-7-carboxamide] was tested, and the AC50 (HTT mRNA [1]) was 1 to 10 µM, the IC50 (HTT mRNA [1]) was 1 to 10 µM and the AC50 (MYB mRNA [2]) was 1 to 10 µM. For the same compound, the IC50 (MYB mRNA [2]) was 1 to 10 µM, the IC50 (HTT mRNA [3]) was 1 to 10 µM and the IC50 (MYB mRNA [4]) was 1 to 10 µM. The GI50 [5] was 1 to 10 µM.

Compound `Cn1cc2cc(NC(=O)c3ccc(N4CCC(NC5CC5)CC4)c4cn(C)nc34)c(F)cc2n1` [Compound 459, 4-[4-(cyclopropylamino)-1-piperidyl]-N-(6-fluoro-2-methyl-indazol-5-yl)-2-methyl-indazole-7-carboxamide] has an AC50 (HTT mRNA [1]) of over 10 µM, an IC50 (HTT mRNA [1]) of 1 to 10 µM and an AC50 (MYB mRNA [2]) of 0.1 to 1 µM. For the same compound, the IC50 (MYB mRNA [2]) was 0.1 to 1 µM, the IC50 (HTT mRNA [3]) was 1 to 10 µM and the IC50 (MYB mRNA [4]) was 0.1 to 1 µM. The GI50 [5] was 1 to 10 µM.
